Patent US20220409619A1, “INHIBITORS OF HUMAN IMMUNODEFICIENCY VIRUS REPLICATION” (VIIV HEALTHCARE UK (No. 5) LIMITED, priority 2019, published 2022)

Tests used:
[1] = Compound cytotoxicity, XTT-based colorimetric assay; assay type: cell-based; conditions: human; uninfected MT2 cells, day 4, XTT-based colorimetric assay
Description: Compound cytotoxicity and the corresponding CC50 values were determined using the same protocol as described in the antiviral assay except that uninfected cells were used. Cytotoxicity was assessed on day 4 in uninfected MT2 cells by using a XTT (2,3-bis[2-Methoxy-4-nitro-5-sulfophenyl]-2H-tetrazolium-5-carboxyanilide inner salt)-based colorimetric assay (Sigma-Aldrich, St Louis, Mo.).

[2] = test system: recombinant NL4-3 virus (nef section replaced with Renilla luciferase gene) in MT-2 cells; assay: HIV cell culture assay (antiviral activity, luciferase readout); assay type: cell-based; conditions: Renilla, NL43
Description: HIV cell culture assay—MT-2 cells, 293T cells and the proviral DNA clone of NL4-3 virus were obtained from the NIH AIDS Research and Reference Reagent Program. MT-2 cells were propagated in RPMI 1640 media supplemented with 10% heat inactivated fetal bovine serum (FBS), 100 μg/ml penicillin G and up to 100 units/mL streptomycin. The 293T cells were propagated in DMEM media supplemented with 10% heat inactivated FBS, 100 μg/mL penicillin G and 100 μg/mL streptomycin. A recombinant NL4-3 proviral clone, in which a section of the nef gene was replaced with the Renilla luciferase gene, was used to make the reference virus used in these studies. The recombinant virus was prepared through transfection of the recombinant NL4-3 proviral clone into 293T cells using Transit-293 Transfection Reagent from Mirus Bio LLC (Madison, Wis.). Supernatent was harvested after 2-3 days and the amount of virus present was titered in MT-2 cells using luciferase enzyme activity as a marker by measuring luciferase enzyme activity. Luciferase was quantitated using the EnduRen Live Cell Substrate from Promega (Madison, Wis.). Antiviral activities of compounds toward the recombinant virus were quantified by measuring luciferase activity in MT-2 cells infected for 4-5 days with the recombinant virus in the presence of serial dilutions of the compound.
The 50% effective concentration (EC50) was calculated by using the exponential form of the median effect equation where (Fa)=1/[1+(ED50/drug conc.)^m] (Johnson V A, Byington R T. Infectivity Assay. In Techniques in HIV Research. ed. Aldovini A, Walker B D. 71-76. New York: Stockton Press. 1990). Curve fitting and analysis were performed with ActivityBase XE Runner software version 9.1.0.4 using model 203 (ID Business Solutions, LTD, Guildford, UK).

Row | SMILES | CC50 at 4 days [1] | EC50 [2]
1 | Cn1nc(NS(C)(=O)=O)c2c(Cl)ccc(-n3c([C@H](Cc4cc(F)cc(F)c4)NC(=O)Cn4nc(C(F)F)c5c4C(F)(F)[C@@H]4C[C@H]54)nc(-c4csc(S(C)(=O)=O)n4)cc3=O)c21 (atropisomer, axis not shown; (P)) [Example 17, N-((S)-1-((1P)-1-(4-chloro-1-methyl-3-(methylsulfonamido)-1H-indazol-7-yl)-4-(2-(methylsulfonyl)thiazol-4-yl)-6-oxo-1,6-dihydropyrimidin-2-yl)-2-(3,5-difluorophenyl)ethyl)-2-((3bS,4aR)-3-(difluoromethyl)-5,5-difluoro-3b,4,4a,5-tetrahydro-1H-cyclopropa[3,4]cyclopenta[1,2-c]pyrazol-1-yl)acetamide] | > 100 nM | 0.81 nM
2 | COc1cncc(-c2cc(=O)n(-c3ccc(Cl)c4c(NS(=O)(=O)C5CC5)nn(CC(F)F)c34)c([C@H](Cc3cc(F)cc(F)c3)NC(=O)Cn3nc(C(F)F)c4c3C(F)(F)[C@@H]3C[C@H]43)n2)n1 (atropisomer, axis not shown; (P)) [Example 40, N-((S)-1-((1P)-1-(4-chloro-3-(cyclopropanesulfonamido)-1-(2,2-difluoroethyl)-1H-indazol-7-yl)-4-(6-methoxypyrazin-2-yl)-6-oxo-1,6-dihydropyrimidin-2-yl)-2-(3,5-difluorophenyl)ethyl)-2-((3bS,4aR)-3-(difluoromethyl)-5,5-difluoro-3b,4,4a,5-tetrahydro-1H-cyclopropa[3,4]cyclopenta[1,2-c]pyrazol-1-yl)acetamide] | > 100 nM | 0.6 nM
3 | Cn1nc(NS(C)(=O)=O)c2c(Cl)ccc(-n3c([C@H](Cc4cc(F)cc(F)c4)NC(=O)Cn4nc(C(F)F)c5c4C(F)(F)[C@@H]4C[C@H]54)nc(-c4cnccn4)cc3=O)c21 (atropisomer, axis not shown; (P)) [Example 20, N-((S)-1-((1P)-1-(4-chloro-1-methyl-3-(methylsulfonamido)-1H-indazol-7-yl)-6-oxo-4-(pyrazin-2-yl)-1,6-dihydropyrimidin-2-yl)-2-(3,5-difluorophenyl)ethyl)-2-((3bS,4aR)-3-(difluoromethyl)-5,5-difluoro-3b,4,4a,5-tetrahydro-1H-cyclopropa[3,4]cyclopenta[1,2-c]pyrazol-1-yl)acetamide] | > 100 nM | 0.16 nM
4 | CC(C)(C#Cc1cc(=O)n(-c2ccc(Cl)c3c(NS(=O)(=O)C4CC4)nn(CC(F)F)c23)c([C@H](Cc2cc(F)cc(F)c2)NC(=O)Cn2nc(C(F)F)c3c2C(F)(F)[C@@H]2C[C@H]32)n1)S(C)(=O)=O (atropisomer, axis not shown; (P)) [Example 47, N-((S)-1-((1P)-1-(4-chloro-3-(cyclopropanesulfonamido)-1-(2,2-difluoroethyl)-1H-indazol-7-yl)-4-(3-methyl-3-(methylsulfonyl)but-1-yn-1-yl)-6-oxo-1,6-dihydropyrimidin-2-yl)-2-(3,5-difluorophenyl)ethyl)-2-((3bS,4aR)-3-(difluoromethyl)-5,5-difluoro-3b,4,4a,5-tetrahydro-1H-cyclopropa[3,4]cyclopenta[1,2-c]pyrazol-1-yl)acetamide] | > 100 nM | 0.047 nM
5 | Cc1ccnc(-c2cc(=O)n(-c3ccc(Cl)c4c(NS(=O)(=O)C5CC5)nn(CC(F)F)c34)c([C@H](Cc3cc(F)cc(F)c3)NC(=O)Cn3nc(C(F)F)c4c3C(F)(F)[C@@H]3C[C@H]43)n2)n1 (atropisomer, axis not shown; (aR)) [Example 43, N-((S)-1-((1′P)-1′-(4-chloro-3-(cyclopropanesulfonamido)-1-(2,2-difluoroethyl)-1H-indazol-7-yl)-4-methyl-6′-oxo-1′,6′-dihydro-[2,4′-bipyrimidin]-2′-yl)-2-(3,5-difluorophenyl)ethyl)-2-((3bS,4aR)-3-(difluoromethyl)-5,5-difluoro-3b,4,4a,5-tetrahydro-1H-cyclopropa[3,4]cyclopenta[1,2-c]pyrazol-1-yl)acetamide] | > 100 nM | 0.17 nM
